Measured values reported in the NIST ThermoML archive (doi:10.1016/j.fluid.2010.01.007).
Numbers after ± are expanded uncertainties.

Assay: activity coefficient (dimensionless); of the first substance listed, at infinite dilution; xn = mol fraction of the nth substance listed
Details: Liquid, Chromatography, x1 = 0

SMILES | activity coefficient (334.8 K) | activity coefficient (344.3 K) | activity coefficient (353.9 K) | activity coefficient (363.4 K) | activity coefficient (325.2 K)
CCC1CO1 (stereo unspecified) [ethyloxirane] + CCCCn1cc[n+](C)c1.F[P-](F)(F)(F)(F)F | 1.13 ± 0.03 | 1.13 ± 0.03 | 1.19 ± 0.03 | 1.16 ± 0.03 | 
CCCCC1CO1 (stereo unspecified) [1,2-epoxyhexane] + CCCCn1cc[n+](C)c1.F[B-](F)(F)F | 5.31 ± 0.19 | 5.3 ± 0.19 | 5.14 ± 0.18 | 5.2 ± 0.18 | 5.7 ± 0.2
CCC1CO1 (stereo unspecified) [ethyloxirane] + CCCCn1cc[n+](C)c1.F[B-](F)(F)F | 2.14 ± 0.08 | 2.08 ± 0.07 | 2.05 ± 0.07 | 2.1 ± 0.07 | 2.62 ± 0.09
CCCCC1CO1 (stereo unspecified) [1,2-epoxyhexane] + CCCCn1cc[n+](C)c1.F[P-](F)(F)(F)(F)F | 1.94 ± 0.07 | 2.19 ± 0.08 | 2.2 ± 0.08 | 2.14 ± 0.08 | 
CC1CO1 (stereo unspecified) [methyloxirane] + CCCCn1cc[n+](C)c1.F[B-](F)(F)F | 1.33 ± 0.04 | 1.27 ± 0.03 | 1.32 ± 0.04 | 1.41 ± 0.04 | 1.35 ± 0.04
CC1CO1 (stereo unspecified) [methyloxirane] + CCCCn1cc[n+](C)c1.F[P-](F)(F)(F)(F)F | 0.838 ± 0.021 | 0.828 ± 0.021 | 0.893 ± 0.021 | 0.872 ± 0.024 | 
CC1(C)CO1 [2,2-dimethyloxirane] + CCCCn1cc[n+](C)c1.F[B-](F)(F)F | 2.13 ± 0.07 | 2.11 ± 0.07 | 2.06 ± 0.07 | 2.18 ± 0.08 | 2.19 ± 0.08
CC1(C)CO1 [2,2-dimethyloxirane] + CCCCn1cc[n+](C)c1.F[P-](F)(F)(F)(F)F | 1.09 ± 0.03 | 1.12 ± 0.03 | 1.21 ± 0.03 | 1.19 ± 0.04 | 
